Test results from patent publication US12290544B1, “Essential oil of stems and leaves of Chuzhou chrysanthemum and application thereof” (Chuzhou University, priority 2023, dated 2025).
Structures can show the parent of a compound that is named as a salt.

Assays:
Staphylococcus aureus = test: Bacterial inhibition assay (filter paper, bacteriostatic ring); format: cell-based
Protocol: (§1) Cultured Escherichia coli and Staphylococcus aureus are diluted into […] colony forming units per milliliter (CFU/mL) bacterial solution respectively, and evenly spread on a potato dextrose agar (PDA) plate. After standing for 10 min, the filter paper with a diameter of 6 mm made by a punch is spread on the PDA plate, and 6 pieces are evenly placed in each plate. 10 μL of essential oil of stems and leaves of Chuzhou chrysanthemum with a concentration of 5 mg/mL is added with a pipette, and the culture dish is placed in a 37° C. incubator for culture. In the same way, the bacterial inhibition assay of the essential oil of the stems and leaves of Chuzhou chrysanthemum is carried out at the concentrations of 10, 20, 50, and 100 mg/mL. After 16 to 18 h of incubation, a diameter of a bacteriostatic ring (including the piece) is measured with a vernier caliper and recorded. When measuring the bacteriostatic ring, the bacteriostatic ring with uniform and completely sterile growth should be selected, and its diameter should be measured with an outer edge of the bacteriostatic ring as the boundary. Six parallel experiments are performed for each concentration, and the mean and standard deviation are calculated. Ethyl acetate is used as blank control, and streptomycin sulfate and ampicillin are used as positive controls.

Escherichia coli = test: as above; format: cell-based
Protocol: as §1

[1] = positive control 50 ppm, read-out: Inhibitory rate
[2] = positive control 500 ppm, read-out: Inhibitory rate

`CC1(C)S[C@@H]2[C@H](NC(=O)[C@H](N)c3ccccc3)C(=O)N2[C@H]1C(=O)O` [Ampicillin] was tested, and the Bacteriostatic ring diameter (Staphylococcus aureus; positive control 50 ppm) was 16.58 ± 1.17C mm, the inhibition at 50 ppm (Staphylococcus aureus; [1]) was 53.2 ± 3.03% and the Bacteriostatic ring diameter (Escherichia coli; positive control 50 ppm) was 17.12 ± 0.63B mm. It also gave an inhibition at 50 ppm (Escherichia coli; [1]) of 54.8 ± 1.66%.

`[H]/N=C(/N)N[C@H]1[C@H](O)[C@@H](O)[C@H](O[C@@H]2O[C@@H](C)[C@](O)(C=O)[C@H]2O[C@@H]2O[C@@H](CO)[C@H](O)[C@@H](O)[C@@H]2NC)[C@@H](N/C(N)=N\[H])[C@@H]1O` [Streptomycin sulfate] showed a Bacteriostatic ring diameter (Staphylococcus aureus; positive control 500 ppm) of 18.10 ± 0.48B mm, an inhibition at 500 ppm (Staphylococcus aureus; [2]) of 57.3 ± 1.13% and a Bacteriostatic ring diameter (Escherichia coli; positive control 500 ppm) of 15.98 ± 0.43C mm. The inhibition at 500 ppm (Escherichia coli; [2]) was 51.6 ± 1.3%.
